Data set [1] relates to PC-3. Put plainly: Induction of apoptosis in human PC3 cells assessed as cleaved caspase-3 containing cells at 5 uM after 24 hrs by FACS analysis (reference value: 3%). In kind it is functional.
Another data set relates to BXPC-3. Kind of data set: Cell cycle arrest in human BxPC3 cells assessed as accumulation at >G2 phase at 5 uM after 24 hrs by propidium iodide staining based flow cytometry (reference value: 6%). In kind it is functional.
Another data set concerns NHDF. Kind of data set: (§1) Growth inhibition of NHDF cells after 48 hrs by SRB assay. In kind it is cell-based. The settings on record: human, nhdf, 48 h.
A short description of data set [2]: as §1. The class given is cell-based. The settings on record: human, NHDF cells.
Data set [3] deals with PC-3. Put plainly: Cell cycle arrest in human PC3 cells assessed as accumulation at G1 phase at 0.5 uM after 24 hrs by propidium iodide staining based flow cytometry (reference value: 36%). In kind it is functional.

SMILES strings stand for the structures.

Turning to `CN1CCN(c2ccc(C(c3ccccc3)C34CC5CC(CC(C5)C3)C4)cc2)CC1` (stereo unspecified), the figures for the Activity with PC-3 [1], in the data set on BXPC-3 and with PC-3 [3] were 2%, 8% and 33%, respectively. The same molecule returned an LC50 in the data set on NHDF of 100 µM. In the data set on NHDF, this molecule displayed a TGI of 9.6 µM. For the same molecule, the GI50 at 48 h in data set [2] is 5.3 µM.

(Values after ChEMBL document CHEMBL2021794, “Synthesis, σ₁, σ₂-receptors binding affinity and antiproliferative action of new C1-substituted adamantanes” (Bioorg Med Chem, 2012).)
